Consider 2 compounds from paper PMC12677607, “Identification of a Pair of Linear or Cyclic Naturally Inspired Bifunctional Lipopeptide Antibiotics That Overcome Antimicrobial Resistance” (Advanced Science, 2025).

Converted amounts (≈) assume the structure as drawn. Bridge positions count the residues as written; N and C are the ends. Square brackets hold non-standard residues; d marks the D form. Peptide text beside a SMILES is read from it. * marks the point of attachment. Myristoyl = CCCCCCCCCCCCCC(=O)*; Orn = NCCC[C@H](N)C(=O)O; Dab = NCC[C@H](N)C(=O)O; Dap = NC[C@H](N)C(=O)O

Data set [1] has as its system Acinetobacter baumannii 1104008. In words: microbe, parasite or virus in culture. Type of data set: cell-based. The settings on record: Table S11; LB broth, 37 °C, 16 h, n = 2. The method, boiled down: (§1)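 Growth inhibition read visually; MIC taken as lowest inhibitory concentration. LB medium; inocula from overnight cultures diluted 5000-fold, S. aureus 10000-fold. Peptide range 64 to 0.125 µg mL^−1 (2-fold, pre-mix), two independent determinations.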

For data set [2], the system named is Acinetobacter baumannii ATCC 19606. In words: microbe, parasite or virus in culture. It counts as cell-based. The settings on record: ATCC 19606, 16 h. An outline of the steps: as §1
The subject of another data set is Enterococcus faecalis 26. The experiment in a line: microbe, parasite or virus in culture. It counts as cell-based. The settings on record: 26, 16 h. An outline of the steps:
as §1

Data set [3] relates to Enterococcus faecalis ATCC 29212. The experiment in a line: microbe, parasite or virus in culture. Type of data set: cell-based. The settings on record: ATCC 29212, 16 h. An outline of the steps:
as §1

The test system of data set [4] is Klebsiella pneumoniae ATCC 13883. In words: microbe, parasite or virus in culture. It counts as cell-based. Particulars: ATCC 13883, 16 h. An outline of the steps:
as §1

The subject of data set [5] is Klebsiella pneumoniae CRKP 5452. The experiment in a line: microbe, parasite or virus in culture. It counts as cell-based. Particulars: for MIC Klebsiella pneumoniae CRKP 5452: Table S11, LB broth, 37 °C, 16 h, n = 2. An outline of the steps:
as §1

In data set [6] the test system is Klebsiella pneumoniae CRKP HS11286. The experiment in a line: microbe, parasite or virus in culture. Type of data set: cell-based. The settings on record: for MIC Klebsiella pneumoniae CRKP HS11286: CRKP HS11286, 16 h. An outline of the steps:
as §1

Data set [7] has as its system Salmonella enterica ATCC 14028. The experiment in a line: microbe, parasite or virus in culture. Type of data set: cell-based. The settings on record: ATCC 14028, 16 h. The method, boiled down:
as §1

The subject of data set [8] is Candida albicans ATCC 10231. In words: MIC assay (YPD broth). The settings on record: Table S11; YPD broth, 30 °C, 16 h, n = 2. Type of data set: cell-based. As for the experimental part:
(§2) All MIC assays were performed two independent times (n = 2) in 96‐well plates using a broth micro‐dilution method. The lowest concentration of that inhibited visible microbial growth was recorded as the MIC value.
(§3) For fungal strains, overnight cultures were diluted 2000‐fold in YPD broth. 100 µL of diluted cells was mixed with 100 µL of YPD broth containing each peptide ranging from […] 64 to 0.125 µg mL^−1 at 2‐fold serial dilutions.

The test system of data set [9] is Candida albicans ATCC 64550. It counts as cell-based. The settings on record: ATCC 64550, 16 h. The method, then: as §2, §3
Data set [10] can be described thus: Isothermal titration calorimetry. The settings on record: Table S12, ITC, 20 mM HEPES pH 7.5, 20 injections. Type of data set: binding. The method, then: Calorimetric experiments were performed to evaluate the interaction between CL, PE, PG, or LPS and aquicidine L or aquicidine C4. To determine the affinity between aquicidine L or aquicidine C4 and CL, PE, or PG, both 2 mM CL, PE, or PG and 0.2 mM aquicidine L or aquicidine C4 were dissolved in 20 mM HEPES buffer (pH 7.5). To determine the interaction between LPS and aquicidine L or aquicidine C4, 2 mM LPS and 0.2 mM aquicidine L or aquicidine C4 were dissolved in H2O. Sequential injections of CL, PE, PG, or LPS into the calorimetric cell filled with aquicidine L or aquicidine C4 were repeated 20 times with equilibration intervals of 200 s. Data were collected by using a MicroCal PEAQ‐ITC instrument and calculated for the equilibrium dissociation constant (KD), change of enthalpy (ΔH), and change of entropy […].

Data set [11] concerns S. aureus USA300. The experiment in a line: Time-dependent killing assay. The settings on record: 4× MIC, time-dependent killing curve, n = 3. It counts as cell-based. As for the experimental part:
Overnight cultures of S. aureus USA300 were diluted 1:10000 in LB broth and incubated for 2 h at 37 °C and 200 rpm. […] After 15, 30, 60, 120, 180, 240, 300, and 360 min, 100 µL of cell suspension were collected, serially diluted, and plated on LB agar plates. After an incubation of 16 h at 37 °C, bacterial colonies were counted. Experiments were performed three independent times (n = 3).

In another data set the test system is E. coli DH5α. In words: Bactericidal effects / cell lysis in E. coli. Type of data set: cell-based. Particulars: after 12 h at 16× MIC, Figure S123a.
Data set [12] has as its system S. aureus USA300. In words: Membrane depolarization assay (DiSC3(5)). It counts as cell-based. The settings on record: S. aureus USA300 in PBS, 4 × MIC, n = 2. The method, then:
Bacterial membrane depolarization assay was performed in 384‐well black microtiter plates. Overnight cell cultures of S. aureus USA300 were collected and resuspended in PBS buffer to an OD600 of 0.5. Then, 100 µL of the diluted cell suspension and 50 µL of 20 µM DiSC3(5) dye were added to 300 µL of PBS buffer, which was incubated for 15 min at room temperature in the dark. 50 µL of 2 M KCl was then added and incubated for another 15 min. Fluorescence intensity was determined continually at 2 s intervals (Ex/Em 643/675 nm) using a Tecan spark multimode microplate reader. When the signal stabilized, the appropriate amount of aquicidine L or aquicidine C4 (6.4 mg mL^−1 in DMSO, 4 × MIC) was added. DMSO and daptomycin were used as negative and positive controls, respectively. Data were shown as the relative intensity with respect to the average fluorescence signal prior to the addition of each compound. All assays were performed two independent times (n = 2), and a representative fluorescence recording was presented.

Data set [13] has as its system S. aureus USA300. The experiment in a line: Membrane lysis assay (SYTOX Green). It counts as cell-based. Particulars: S. aureus USA300 in PBS, 8 × MIC, n = 2. The method, then:
Bacterial membrane lysis assay was performed in 384‐well black microtiter plates. Overnight cultures of S. aureus USA300 were collected and resuspended in PBS buffer to an OD600 of 0.5. 1 µL of 5 mM SYTOX Green dye was added to 2.5 mL of the diluted cell suspension, which was incubated for 10 min at room temperature in the dark. Fluorescence intensity was detected continually at 2 s intervals (Ex/Em 488/523 nm) using a Tecan spark multimode microplate reader. When the fluorescence signal stabilized, the appropriate amount of each compound (6.4 mg mL^−1 in DMSO, 8 × MIC) was added. DMSO and daptomycin (with 15 mM CaCl2) were used as negative and positive controls, respectively. Data were shown as the relative intensity with respect to the average fluorescence signal prior to the addition of each compound. All membrane lysis assays were performed two independent times (n = 2), and a representative fluorescence recording was presented.

The next data set can be described thus: Acute toxicity assay. It counts as in vivo, mouse. Particulars: single dose 250 mg kg^−1 intraperitoneal, three mice, five days. As for the experimental part: For acute toxicity assessment, three mice were given a single dose of aquicidine L or aquicidine C4 at 250 mg kg^−1 via intraperitoneal injection. Mice were observed twice daily for mortality and morbidity as well as for possible signs of acute toxicity. The experiment was totally monitored for five days.

For `CCCCCCCCCCCCCC(=O)N[C@@H](CN)C(=O)N[C@H](C(=O)N[C@@H](CC(C)C)C(=O)N[C@H]1COC(=O)[C@H](Cc2ccccc2)NC(=O)[C@H](CC(N)=O)NC(=O)[C@H](CCCN)NC(=O)[C@H]([C@@H](C)CC)NC(=O)[C@H](Cc2ccccc2)NC(=O)[C@H](CN)NC(=O)[C@H](CCN)NC1=O)[C@@H](C)O` [synAQU5-C4] (Myristoyl-[Dap]TLS[Dab][Dap]FI[Orn]NF; ester 4-C), in data set [1], the “MIC Acinetobacter baumannii 1104008” value was determined as 16 µg/mL (≈ 11.3 µM). The “MIC Acinetobacter baumannii ATCC 19606” value in data set [2] amounted to 32 µg/mL (≈ 22.5 µM). Moreover, the “MIC Enterococcus faecalis 26” value with Enterococcus faecalis 26 stood at 2 µg/mL (≈ 1.41 µM). In addition, the “MIC Enterococcus faecalis ATCC 29212” value in data set [3] came out at 4 µg/mL (≈ 2.82 µM). In addition, the “MIC Klebsiella pneumoniae ATCC 13883” value in [4] is above 64 µg/mL. In [5], the “MIC Klebsiella pneumoniae CRKP 5452” value came out at 32 µg/mL (≈ 22.5 µM). In [6], the “MIC Klebsiella pneumoniae CRKP HS11286” value was 32 µg/mL (≈ 22.5 µM). In addition, the “MIC Salmonella enterica ATCC 14028” value in data set [7] stood at 32 µg/mL (≈ 22.5 µM). Also, the “MIC Candida albicans ATCC 10231” value in data set [8] is above 64 µg/mL. Besides, the “MIC Candida albicans ATCC 64550” value in [9] was above 64 µg/mL. Moreover, the values for the Kd in data set [10] (2 mM CL into 0.2 mM peptide), in data set [10] (2 mM PE into 0.2 mM peptide) and in [10] (2 mM PG into 0.2 mM peptide) were 0.06 µM, 49.3 µM and 0.08 µM, respectively. In addition, the “bactericidal activity, number of viable cells” value in the data set with S. aureus USA300 [11] is “decreased the number of viable cells by two orders of magnitude after 5 h”. Besides, the “cell lysis in E. coli” value with E. coli DH5α is listed as “slightly led to cell lysis”. Moreover, the “DiSC3(5) fluorescence (membrane depolarization)” value in the data set on S. aureus USA300 [12] is on record as “significant increase”. The “SYTOX fluorescence (cell lysis)” value with S. aureus USA300 [13] is “significant increase”. The “acute toxicity in mouse” value in the data set “Acute toxicity assay” was “no obvious acute toxicities”.
On to `CCCCCCCCCCCCCC(=O)N[C@@H](CN)C(=O)N[C@H](C(=O)N[C@@H](CC(C)C)C(=O)N[C@@H](CO)C(=O)N[C@@H](CCN)C(=O)N[C@@H](CN)C(=O)N[C@@H](Cc1ccccc1)C(=O)N[C@H](C(=O)N[C@@H](CCCN)C(=O)N[C@@H](CC(N)=O)C(=O)N[C@@H](Cc1ccccc1)C(=O)O)[C@@H](C)CC)[C@@H](C)O` [synAQU5-L] (Myristoyl-[Dap]TLS[Dab][Dap]FI[Orn]NF-OH), for which the “MIC Acinetobacter baumannii 1104008” value in data set [1] was 4 µg/mL (≈ 2.78 µM). The “MIC Acinetobacter baumannii ATCC 19606” value in [2] was 8 µg/mL (≈ 5.56 µM). Further, the “MIC Enterococcus faecalis 26” value against Enterococcus faecalis 26 stood at 8 µg/mL (≈ 5.56 µM). Further, the “MIC Enterococcus faecalis ATCC 29212” value in [3] amounted to 32 µg/mL (≈ 22.3 µM). In addition, in data set [4], the “MIC Klebsiella pneumoniae ATCC 13883” value stood at 8 µg/mL (≈ 5.56 µM). The “antibacterial activity (MIC) K. pneumoniae CRKP 5452” value in data set [5] (Figure S127a, wild type) was 4 µg/mL. In addition, the “MIC Klebsiella pneumoniae CRKP 5452” value in [5] turned out to be 4 µg/mL (≈ 2.78 µM). For the same compound, in data set [6], the “MIC Klebsiella pneumoniae CRKP HS11286” value worked out at 4 µg/mL (≈ 2.78 µM). The “antibacterial activity (MIC) K. pneumoniae CRKP HS11286” value in data set [6] (Figure S127a) was 4 µg/mL. Besides, in [7], the “MIC Salmonella enterica ATCC 14028” value was found to be 4 µg/mL (≈ 2.78 µM). Further, in data set [8], the “MIC Candida albicans ATCC 10231” value was above 64 µg/mL. Also, in [9], the “MIC Candida albicans ATCC 64550” value was above 64 µg/mL. For the same compound, the Kd is 0.28 µM in data set [10] (2 mM CL into 0.2 mM peptide), 7.88 µM in data set [10] (2 mM PE into 0.2 mM peptide) and 0.32 µM in data set [10] (2 mM PG into 0.2 mM peptide). Also, the “bactericidal activity, number of viable cells” value with S. aureus USA300 [11] is on record as “only inhibited the growth of S. aureus USA300 within 2 h”. Besides, the “cell lysis in E. coli” value in the data set with E. coli DH5α is given as “significantly led to cell lysis”. In the data set on S. aureus USA300 [12], the “DiSC3(5) fluorescence (membrane depolarization)” value was “not aquicidine L caused a significant increase”. The “SYTOX fluorescence (cell lysis)” value in the data set with S. aureus USA300 [13] is recorded as “not aquicidine L caused a significant increase”. Moreover, the “acute toxicity in mouse” value in “Acute toxicity assay” is on record as “no obvious acute toxicities”.
